Reference: ChEMBL document CHEMBL3112578, “Synthesis and haemolytic activity of novel salts made of nicotine alkaloids and bile acids” (Bioorg Med Chem Lett, 2014)
≈ marks a conversion by molar mass, not a printed value.

Key:
[1] = Hemolytic activity in human erythrocytes assessed as release of hemoglobin at 0.0001 mg/mL after 60 mins relative to control; assay type: ADME, cell-based, Erythrocyte; settings: read-out: Activity
[2] = Hemolytic activity in human erythrocytes assessed as induction of stomatocytic shape alteration at hemolysis start concentration after 60 mins by SEM analysis; assay type: cell-based; settings: erythrocyte, 1 h
[3] = Hemolytic activity in human erythrocytes assessed as release of hemoglobin after 60 mins; assay type: ADME, cell-based, Erythrocyte; settings: 1 h; for IC50: Homo sapiens, Erythrocyte; for Activity: human, erythrocyte
[4] = Hemolytic activity in human erythrocytes assessed as discocytic shape up to 1 mg/mL after 60 mins by SEM analysis; assay type: ADME, cell-based; settings: erythrocyte, 1 h
[5] = Hemolytic activity in human erythrocytes assessed as increase in cell permeability up to 1 mg/mL after 60 mins; assay type: ADME, cell-based; settings: erythrocyte, 1 h
[6] = Hemolytic activity in human erythrocytes assessed as induction of echinocytic shape alteration at hemolysis start concentration after 60 mins by SEM analysis; assay type: cell-based; settings: erythrocyte, 1 h
[7] = Hemolytic activity in human erythrocytes assessed as release of hemoglobin at 0.00001 mg/mL after 60 mins relative to control; assay type: ADME, cell-based, Erythrocyte; settings: read-out: Activity
[8] = Hemolytic activity in human erythrocytes assessed as induction of spheroechinocytic shape alteration at hemolysis start concentration after 60 mins by SEM analysis; assay type: cell-based; settings: erythrocyte, 1 h
[9] = Hemolytic activity in human erythrocytes assessed as release of hemoglobin at 0.67 mg/mL after 60 mins relative to control; assay type: ADME, cell-based, Erythrocyte; settings: read-out: Activity
[10] = Hemolytic activity in human erythrocytes assessed as release of hemoglobin at 0.007 mg/mL after 60 mins relative to control
[11] = Hemolytic activity in human erythrocytes assessed as release of hemoglobin at 0.63 mg/mL after 60 mins relative to control; assay type: ADME, cell-based, Erythrocyte; settings: read-out: Activity
[12] = Hemolytic activity in human erythrocytes assessed as release of hemoglobin at 0.75 mg/mL after 60 mins relative to control; assay type: ADME, cell-based, Erythrocyte; settings: read-out: Activity
[13] = Hemolytic activity in human erythrocytes assessed as release of hemoglobin at 0.17 mg/mL after 60 mins relative to control; assay type: ADME, cell-based, Erythrocyte; settings: read-out: Activity
[14] = Hemolytic activity in human erythrocytes assessed as release of hemoglobin at 0.19 mg/mL after 60 mins relative to control; assay type: ADME, cell-based, Erythrocyte; settings: read-out: Activity
[15] = Hemolytic activity in human erythrocytes assessed as release of hemoglobin at 0.006 mg/mL after 60 mins relative to control; assay type: ADME, cell-based, Erythrocyte; settings: read-out: Activity

For `C[C@H](CCC(=O)O)[C@H]1CC[C@H]2[C@@H]3CC[C@@H]4C[C@H](O)CC[C@]4(C)[C@H]3CC[C@]12C` [LITHOCHOLIC ACID], the hemolysis at 1 h, 0.0001 mg/mL [1] was 5%, the Activity [2] was “Toxic” and the IC50 [3] was 9 µg/mL (≈ 23.9 µM).

With `CN1C(=[Se])CC[C@H]1c1cccnc1` the Activity [4] was “Non-toxic” and the Activity [5] was “Non-toxic”.

With `CN1C(=S)CC[C@H]1c1cccnc1.C[C@H](CCC(=O)O)[C@H]1CC[C@H]2[C@@H]3CC[C@@H]4C[C@H](O)CC[C@]4(C)[C@H]3CC[C@]12C` the Activity [6] was “Toxic”, the hemolysis at 1 h, 1e-05 mg/mL [7] was 5% and the IC50 [3] was 40 µg/mL. The Activity [3] was “Dose-dependent effect” and the Activity [8] was “Toxic”.

For `CN1C(=S)CC[C@H]1c1cccnc1.C[C@H](CCC(=O)O)[C@H]1CC[C@H]2[C@@H]3CC[C@@H]4C[C@H](O)CC[C@]4(C)[C@H]3C[C@H](O)[C@]12C`, the Activity [5] was “Non-toxic”, the hemolysis at 1 h, 0.67 mg/mL [9] was 5% and the Activity [3] was “Dose-dependent effect”.

With `CN1CCC[C@H]1c1cccnc1.C[C@H](CCC(=O)O)[C@H]1CC[C@H]2[C@@H]3[C@H](O)C[C@@H]4C[C@H](O)CC[C@]4(C)[C@H]3C[C@H](O)[C@]12C` the Activity [5] was “Non-toxic”.

For `CN1CCC[C@H]1c1cccnc1.C[C@H](CCC(=O)O)[C@H]1CC[C@H]2[C@@H]3CC[C@@H]4C[C@H](O)CC[C@]4(C)[C@H]3CC[C@]12C`, the hemolysis at 1 h, 0.007 mg/mL [10] was 5%, the Activity [2] was “Toxic” and the hemolysis at 1 h, 1e-05 mg/mL [7] was 16.7%. For the same compound, the IC50 [3] was 200 µg/mL and the Activity [3] was “Dose-dependent effect”.

With `CN1CCC[C@H]1c1cccnc1.C[C@H](CCC(=O)O)[C@H]1CC[C@H]2[C@@H]3CC[C@@H]4C[C@H](O)CC[C@]4(C)[C@H]3C[C@H](O)[C@]12C` the Activity [5] was “Non-toxic”, the Activity [2] was “Toxic” and the hemolysis at 1 h, 1e-05 mg/mL [7] was 12.4%. The Activity [3] was “Dose-dependent effect” and the hemolysis at 1 h, 0.63 mg/mL [11] was 5%.

In the case of `CN1CCC[C@H]1c1cccnc1` [NICOTINE], the Activity [4] is reported as “Non-toxic” and the Activity [5] is reported as “Non-toxic”.

With `C[C@H](CCC(=O)O)[C@H]1CC[C@H]2[C@@H]3[C@H](O)C[C@@H]4C[C@H](O)CC[C@]4(C)[C@H]3C[C@H](O)[C@]12C` [CHOLIC ACID] the Activity [5] was “Non-toxic” and the hemolysis at 1 h, 0.75 mg/mL [12] was 5%.

For `C[C@H](CCC(=O)O)[C@H]1CC[C@H]2[C@@H]3CC[C@@H]4C[C@H](O)CC[C@]4(C)[C@H]3C[C@H](O)[C@]12C` [SODIUM DEOXYCHOLATE], the Activity [2] was “Toxic” and the hemolysis at 1 h, 0.17 mg/mL [13] was 5%.

With `CN1C(=[Se])CC[C@H]1c1cccnc1.C[C@H](CCC(=O)O)[C@H]1CC[C@H]2[C@@H]3CC[C@@H]4C[C@H](O)CC[C@]4(C)[C@H]3C[C@H](O)[C@]12C` the hemolysis at 1 h, 0.19 mg/mL [14] was 5%, the IC50 [3] was 610 µg/mL and the Activity [3] was “Dose-dependent effect”.

In the case of `CN1C(=[Se])CC[C@H]1c1cccnc1.C[C@H](CCC(=O)O)[C@H]1CC[C@H]2[C@@H]3CC[C@@H]4C[C@H](O)CC[C@]4(C)[C@H]3CC[C@]12C`, the hemolysis at 1 h, 0.006 mg/mL [15] is reported as 5%, the Activity [6] is reported as “Toxic” and the IC50 [3] is reported as 180 µg/mL. The Activity [3] was “Dose-dependent effect”.

With `CN1C(=S)CC[C@H]1c1cccnc1` the Activity [4] was “Non-toxic” and the Activity [5] was “Non-toxic”.
